Source: patent publication US7078438B2, “N-(4 substituted phenyl)-anthranilic acid hydroxamate esters” (Warner-Lambert Company, priority 2002, dated 2006)
pIC50: −log10 of the molar value.

Tests used:
[1] = test system: MEK; assay: Cellular assay for measuring MEK inhibition (inhibition of ERK phosphorylation); format: cell-based; settings: inhibition of phosphorylation of MAP kinase (ERK) in murine colon 26 (C26) carcinoma cells; 1 hour at 37° C.; Western blotting
Description: Cellular Assay for Measuring MEK Inhibition
The evaluation of the compounds as MEK inhibitors is performed in an assay that measures their ability to inhibit phosphorylation of MAP kinase (ERK) in murine colon 26 (C26) carcinoma cells. Since ERK1 and ERK2 represent the only known substrates for MEK, measurement of inhibition of ERK phosphorylation in cells provides direct readout of cellular MEK inhibition by the compounds of the invention. Briefly, the assay involves treating exponentially growing C26 cells with varying concentrations of the test compound (or vehicle control) for 1 hour at 37° C. Cells are then rinsed free of compound/vehicle and lysed in a solution containing 70 mM NaCl, 50 mM glycerol phosphate, 10 mM HEPES, pH 7.4, 1% Triton X-100, 1 mM Na3VO4, 100 μM PMSF, 10 μM leupeptin, and 10 μM pepstatin. Supernatants are then subjected to gel electrophoresis and Western blotting using a primary antibody recognizing dually phosphorylated ERK1 and ERK2. To evaluate total MAPK levels, blots were subsequently ‘stripped’ and re-probed with a 1:1 mixture of polyclonal antibodies recognizing unphosphorylated ERK1 and ERK2.
The inhibition data generated by the above protocol is disclosed in Table 1. If several concentrations of inhibitor were tested, IC50 values (the concentration which gives 50% inhibition) were determined graphically from the dose response curve for % inhibition. Otherwise, percent inhibitions at measured concentrations are reported.

SMILES	pIC50 [1]	melting point
CCc1ccc(Nc2c(C(=O)NOCCO)ccc(F)c2F)c(F)c1 [Example 1, 2-[(4-Ethyl-2-fluorophenyl)amino]-3,4-difluoro-N-(2-hydroxyethoxy)benzamide]	8.55	–
CCc1ccc(Nc2c(C(=O)NOCCO)ccc(F)c2F)c(Cl)c1 [Example 2, 2-(2-Chloro-4-ethyl-phenylamino)-3,4-difluoro-N-(2-hydroxy-ethoxy)-benzamide]	8.07	142.5 to 145 °C
Cc1ccc(Nc2c(C(=O)NOCCO)ccc(F)c2F)c(F)c1 [Example 3, 3,4-Difluoro-2-(2-fluoro-4-methylanilino)-N-(2-hydroxyethoxy)benzamide]	9.82	134 to 139 °C
C=Cc1ccc(Nc2c(C(=O)NOCCO)ccc(F)c2F)c(F)c1 [Example 4, 3,4-Difluoro-2-[(2-fluoro-4-vinylphenyl)amino]-N-(2-hydroxyethoxy)benzamide]	8.59	134 to 138 °C
C=CCc1ccc(Nc2c(C(=O)NOCCO)ccc(F)c2F)c(F)c1 [Example 6, 2-(4-Allyl-2-fluoroanilino)-3,4-difluoro-N-(2-hydroxyethoxy)benzamide]	8.11	173 to 177 °C
C#Cc1ccc(Nc2c(C(=O)NOCCO)ccc(F)c2F)c(F)c1 [Example 7]	9.82	158 to 161 °C
C#Cc1ccc(Nc2c(C(=O)NOCCO)ccc(F)c2F)c(Cl)c1 [Example 8, 2-(2-Chloro-4-ethynyl-phenylamino)-3,4-difluoro-N-(2-hydroxy-ethoxy)-benzamide]	8.40	155 to 157 °C
NCC#Cc1ccc(Nc2c(C(=O)NOCCO)ccc(F)c2F)c(F)c1 [Example 9, 2-[4-(3-Amino-1-propynyl)-2-fluoroanilino]-3,4-difluoro-N-(2-hydroxyethoxy)benzamide]	6.33	72 to 76 °C
O=C(NOCCO)c1ccc(F)c(F)c1Nc1ccc(C#CCO)cc1F [Example 10, 3,4-Difluoro-2-[2-fluoro-4-(3-hydroxy-1-propynyl)anilino]-N-(2-hydroxyethoxy)benzamide]	6.89	169 to 172 °C
O=C(NOCCO)c1ccc(F)c(F)c1Nc1ccc(C#CCCO)cc1F [Example 11, 3,4-Difluoro-2-[2-fluoro-4-(4-hydroxy-1-butynyl)anilino]-N-(2-hydroxyethoxy)benzamide]	6.15	126 to 129 °C
CC(C)(O)C#Cc1ccc(Nc2c(C(=O)NOCCO)ccc(F)c2F)c(F)c1 [Example 12, 3,4-Difluoro-2-[2-fluoro-4-(3-hydroxy-3-methyl-1-butynyl)anilino]-N-(2-hydroxyethoxy)benzamide]	< 5.52	139 to 142 °C
CCC(C)(O)C#Cc1ccc(Nc2c(C(=O)NOCCO)ccc(F)c2F)c(F)c1 (stereo not shown) [Example 13, 3,4-Difluoro-2-[2-fluoro-4-(3-hydroxy-3-methyl-1-pentynyl)anilino]-N-(2-hydroxyethoxy)benzamide]	< 6.00	127 to 131 °C
NCCCc1ccc(Nc2c(C(=O)NOCCO)ccc(F)c2F)c(F)c1 [Example 14, 2-[4-(3-Aminopropyl)-2-fluoroanilino]-3,4-difluoro-N-(2-hydroxyethoxy)benzamide]	< 6.00	178 to 181 °C
CN(C)CCCc1ccc(Nc2c(C(=O)NOCCO)ccc(F)c2F)c(F)c1 [Example 15, 2-{4-[3-(Dimethylamino)propyl]-2-fluoroanilino}-3,4-difluoro-N-(2-hydroxyethoxy)benzamide]	< 6.00	–
CNCCCc1ccc(Nc2c(C(=O)NOCCO)ccc(F)c2F)c(F)c1 [Example 16, 3,4-Difluoro-2-{2-fluoro-4-[3-(methylamino)propyl]anilino}-N-(2-hydroxyethoxy)benzamide]	< 6.00	112 to 116 °C
O=C(NOCCO)c1ccc(F)c(F)c1Nc1ccc(CO)cc1 [Example 17, 3,4-Difluoro-N-(2-hydroxyethoxy)-2-[[4-(hydroxymethyl)phenyl]amino]benzamide]	< 6.00	73 to 77 °C
O=C(NOCCO)c1ccc(F)c(F)c1Nc1ccc(CO)cc1F [Example 18, 3,4-Difluoro-2-[2-fluoro-4-(hydroxymethyl)anilino]-N-(2-hydroxyethoxy)benzamide]	–	108 to 110 °C
O=C(NOCCO)c1ccc(F)c(F)c1Nc1ccc(CCCO)cc1F [Example 20, 3,4-Difluoro-2-[2-fluoro-4-(3-hydroxypropyl)anilino]-N-(2-hydroxyethoxy)benzamide]	–	115 to 116 °C
O=C(NOCCO)c1ccc(F)c(F)c1Nc1ccc(CCCCO)cc1F [Example 21, 3,4-Difluoro-2-[2-fluoro-4-(4-hydroxybutyl)anilino]-N-(2-hydroxyethoxy)benzamide]	6.10	65 to 69 °C
O=C(NOCCO)c1ccc(F)c(F)c1Nc1ccc(CC(O)CO)cc1F (stereo not shown) [Example 22, 2-[4-(2,3-Dihydroxypropyl)-2-fluoroanilino]-3,4-difluoro-N-(2-hydroxyethoxy)benzamide]	–	118 to 120 °C
CC(C)(O)CCc1ccc(Nc2c(C(=O)NOCCO)ccc(F)c2F)c(F)c1 [Example 23, 3,4-Difluoro-2-[2-fluoro-4-(3-hydroxy-3-methylbutyl)anilino]-N-(2-hydroxyethoxy)benzamide]	6.70	–
CCC(C)(O)CCc1ccc(Nc2c(C(=O)NOCCO)ccc(F)c2F)c(F)c1 (stereo not shown) [Example 24, 3,4-Difluoro-2-[2-fluoro-4-(3-hydroxy-3-methylpentyl)anilino]-N-(2-hydroxyethoxy)benzamide]	6.23	–
COCCCc1ccc(Nc2c(C(=O)NOCCO)ccc(F)c2F)c(F)c1 [Example 25, 3,4-Difluoro-2-[[2-fluoro-4-(3-methoxypropyl)phenyl]amino]-N-(2-hydroxyethoxy)benzamide]	7.66	–
CSc1ccc(Nc2c(C(=O)NOCCO)ccc(F)c2F)c(F)c1 [Example 26, 3,4-Difluoro-2-[[2-fluoro-4-(methylthio)phenyl]amino]-N-(2-hydroxyethoxy)benzamide]	9.07	108 to 111 °C
CCSc1ccc(Nc2c(C(=O)NOCCO)ccc(F)c2F)c(F)c1 [Example 27, 3,4-Difluoro-2-[[2-fluoro-4-(ethylthio)phenyl]amino]-N-(2-hydroxyethoxy)benzamide]	8.66	129 to 132 °C
CS(=O)(=O)c1ccc(Nc2c(C(=O)NOCCO)ccc(F)c2F)c(F)c1 [Example 28, 3,4-Difluoro-2-[[2-fluoro-4-(methylsulfonyl)phenyl]amino]-N-(2-hydroxyethoxy)benzamide]	6.14	85 to 88 °C
CCCc1ccc(Nc2c(C(=O)NOCCO)ccc(F)c2F)c(F)c1 [Example 29, 3,4-Difluoro-2-(2-fluoro-4-propylanilino)-N-(2-hydroxyethoxy)benzamide]	8.39	144 to 146 °C
CCCCc1ccc(Nc2c(C(=O)NOCCO)ccc(F)c2F)c(F)c1 [Example 30, 2-(4-Butyl-2-fluoroanilino)-3,4-difluoro-N-(2-hydroxyethoxy)benzamide]	6.72	–
CCc1ccc(Nc2c(C(=O)NOC[C@@H](O)CO)ccc(F)c2F)c(F)c1 [Example 32, N-[(S+)2,3-Dihydroxy-propoxy]-2-(4-ethyl-2-fluoro-phenylamino)-3,4-difluoro-benzamide]	8.70	–
CCc1ccc(Nc2c(C(=O)NOC(CO)CO)ccc(F)c2F)c(F)c1 [Example 33, 2-(4-Ethyl-2-fluoro-phenylamino)-3,4-difluoro-N-(2-hydroxy-1-hydroxymethyl-ethoxy)-benzamide]	–	91 to 93 °C
